Assays:
skin gene expression = test: Mouse skin RNAseq; type: in vivo; conditions: mice, 2 mg/kg paclitaxel i.p. x4
Procedure: The RNAseq data set was published in Cirrincione et al. (2022, Data 7: 72). Following differential gene expression analysis (FDR<0.01) comparing paclitaxel-treated to vehicle control animals (n=4), identified genes were queried in gProfiler and grouped by their molecular function. Using normalized gene counts, Kif genes were analyzed for their expression and plotted over time. […] Kif11 was queried in STRING to identify associated networks and interacting proteins compared to the RNAseq data set and differentially expressed genes were graphed in Prism 9.
Molecular mechanisms underlying paclitaxel-induced microtubule fasciculation were then investigated. […] Peripheral neuropathy was correlated with these times points using von Frey behavioral testing, which determined that peak neuropathy was present at day 7 (D7). This identified several biological categories during peak neuropathy with the largest clusters being implicated in extracellular matrix organization (e.g. “ECM”, “collagen-containing ECM”, “collagen trimer”) and cell cycle regulation (e.g. “outer kinetochore”, “kinesin complex”, condensed chromosome, centromeric region”, “mitotic spindle”, “microtubules”), consistent with our findings in zebrafish. Interactome analysis using STRING (Szklarczyk et al., 2021, Nucl. Acids Res 49: D605-D612) to predict protein association networks further identified major clusters involved in cell cycle regulation, which contained various kinesins, microtubule and nucleus regulators, as well as one cluster annotated as “disulfide bond”, consistent with a role for oxidative signal activation (Leonard et al., 2011, Current opinion in chemical biology 15: 88-102) (shown in FIG. 3D).

Eg5 = Eg5 immunofluorescence in zebrafish caudal fin; type: in vivo; conditions: 22 μM paclitaxel, 96 hr
Procedure: The stock solution was divided into 20-30 μl aliquots and stored at −20 °C until use (maximal 6 months). Immediately prior to use, paclitaxel was diluted in Ringer's solution and added to dechorionated larval zebrafish. The larval fish were placed individually or in small groups into wells of a 12-well plate containing the treatment solutions. The control group was 0.05% DMSO. Plates were incubated at 28.5 °C and protected from light. Treatment lengths are indicated in the Drawings, Description of the Drawings, and Examples where appropriate. […] EMD534085, Eg5 inhibitor (MedChemExpress, Cat. No. HY-15000) was diluted in 100% DMSO to make a 10 mM stock solution and stored at −20 °C. […] The solutions were exchanged every 48 hr.
Larval fish were transferred into […] glass vials and fixed in 4% paraformaldehyde (PFA)/1× Phosphate-buffered saline (PBS) for 1.5 hr at room temperature, with gentle rocking. Following a 5-minute incubation in 1×PBS+0.1% Tween-20 (PBST), zebrafish were permeabilized in 1×PBS+0.1% Triton X-100 for 10-30 min. Larval fish were transferred into 2 ml reaction tubes and incubated in blocking buffer (1×PBST+5% BSA) for 30 min at room temperature, with rocking. […]

keratinocyte nuclei = test: Nuclear volume and sphericity of keratinocytes; type: in vivo, zebrafish; conditions: 96 hr, keratinocytes with dfMTs
Procedure: Nuclear sphericity and volume were calculated in Imaris following 3D rendering of round keratinocyte nuclei using the Surface tool. First, background subtractions were performed, followed by automatic threshold detection. The threshold was adjusted if necessary to fit the nucleus. Thresholds were kept constant for comparisons.
It was expected that dfMTs should be in close proximity to the nucleus in order to activate Nox1 by mechanotransduction. To further confirm this expectation, high resolution imaging and 3D rendering of keratinocyte dfMTs and nuclei were used.

## CC(=O)O[C@H]1C(=O)[C@@]2(C)[C@H]([C@H](OC(=O)c3ccccc3)[C@]3(O)C[C@H](OC(=O)[C@H](O)[C@@H](NC(=O)c4ccccc4)c4ccccc4)C(C)=C1C3(C)C)[C@]1(OC(C)=O)CO[C@@H]1C[C@@H]2O [paclitaxel]
Skin gene expression
  expression of Cdk1, Aurka, Aurkb and Kif11: upregulated during peak neuropathy
  expression of Cyba and Cybb: upregulated at D23
  expression of checkpoint regulators Plk1, Cdc20, Ndc80, Bub1c, Dlgap5: co-upregulation from D7 onward
Eg5
  Eg5 localization/induction: promoted Eg5 puncta formation
Keratinocyte nuclei; 22 μM paclitaxel
  nuclear volume: 582±83.18 μm3
Keratinocyte nuclei; paclitaxel
  nuclear sphericity (1=spherical vs. 0=nonspherical): 0.23±0.01

— patent US20260345584A1, “METHODS AND PHARMACEUTICAL COMPOSITIONS FOR TREATING CHEMOTHERAPY-INDUCED PERIPHERAL NEUROPATHY WITH EG5 INHIBITORS” (UNIVERSITY OF MIAMI, priority 2023, published 2026)
